Data from ChEMBL document CHEMBL1141866, “Synthesis and evaluation of thiazole carboxamides as vanilloid receptor 1 (TRPV1) antagonists” (Bioorg Med Chem Lett, 2005).

Experiments:
[1] = Ability to block acid-induced calcium influx in rat-human chimera TRPV1 expressing CHO cells; assay type: cell-based
[2] = Ability to block capsaicin-induced calcium influx in rat-human chimera TRPV1 expressing CHO cells; assay type: cell-based

SMILES | IC50 [1] [nM] | IC50 [2] [nM]
O=C(Nc1ccc(C(F)(F)F)cc1)c1csc(-c2c(Cl)cccc2Cl)n1 | > 4000 | > 4000
O=C(Nc1ccc(C(F)(F)F)cc1)c1cnc(Cc2c(Cl)cccc2Cl)s1 | 1780 | 790
COc1ccc(NC(=O)c2csc(Cc3c(Cl)cccc3Cl)n2)cn1 | > 4000 | > 4000
COc1ccc(NC(=O)c2csc(Cc3c(Cl)cccc3Cl)n2)cc1 | > 4000 | > 4000
O=C(Nc1ccc(C(F)(F)F)cc1)c1csc(Nc2ccccc2Cl)n1 | 1410 | 1750
O=C(Nc1ccc(C(F)(F)F)cc1)c1csc(Oc2c(Cl)cccc2Cl)n1 | 1280 | 870
O=C(Nc1ccc(Br)cc1)c1csc(Cc2c(Cl)cccc2Cl)n1 | 460 | 400
O=C(Nc1ccc(C(F)(F)C(F)(F)F)cc1)c1csc(Cc2c(Cl)cccc2Cl)n1 | 350 | 290
O=C(Nc1cccc(Br)c1)c1csc(Cc2c(Cl)cccc2Cl)n1 | > 4000 | > 4000
O=C(Nc1ccccc1Br)c1csc(Cc2c(Cl)cccc2Cl)n1 | > 4000 | > 4000
O=C(Nc1ccc(C(F)(F)F)cc1)c1csc(Nc2c(Cl)cncc2Cl)n1 | 880 | 360
Cc1nc(Cc2c(Cl)cccc2Cl)sc1C(=O)Nc1ccc(C(F)(F)F)cc1 | > 4000 | 
O=C(Nc1ccc(C(F)(F)F)nc1)c1csc(Cc2c(Cl)cccc2Cl)n1 | 130 | 110
CC(C)(C)c1ccc(NC(=O)c2csc(Cc3c(Cl)cccc3Cl)n2)cc1 | 300 | 570
N#Cc1ccc(NC(=O)c2csc(Cc3c(Cl)cccc3Cl)n2)cc1 | 720 | 450
O=C(Nc1ccccc1)c1csc(Cc2c(Cl)cccc2Cl)n1 | > 4000 | > 4000
O=C(Nc1ccc(C(F)(F)F)cc1)c1csc(CCc2c(Cl)cccc2Cl)n1 | > 4000 | > 4000
CCc1ccc(NC(=O)c2csc(Cc3c(Cl)cccc3Cl)n2)cc1 | 1450 | 810
Cc1cccc(C)c1Nc1nc(C(=O)Nc2ccc(C(F)(F)F)cc2)cs1 | 82 | 90
Cn1cc(C(=O)Nc2ccc(C(F)(F)F)cc2)nc1Cc1c(Cl)cccc1Cl | 1020 | 1010
O=C(Nc1ccc(C(F)(F)F)cc1)c1coc(Cc2c(Cl)cccc2Cl)n1 | 200 | 62
O=C(Nc1ccc(C(F)(F)F)cc1)c1csc(Nc2c(Cl)cccc2C(F)(F)F)n1 | > 4000 | > 4000
O=C(Nc1ccc(C(F)(F)F)cc1)c1csc(Nc2c(Cl)cccc2Cl)n1 | 48 | 51
O=C(Nc1ccc(C(F)(F)F)cc1)c1csc(Cc2c(Cl)cccc2Cl)n1 | 88 | 
CN(C)c1ccc(NC(=O)c2csc(Cc3c(Cl)cccc3Cl)n2)cc1 | 1270 | > 4000
O=C(Nc1ccc(C(F)(F)F)cc1)c1c[nH]c(Cc2c(Cl)cccc2Cl)n1 | 230 | 230
O=C(Nc1ccc(Br)cn1)c1csc(Cc2c(Cl)cccc2Cl)n1 | > 4000 | > 4000
CC(C)c1ccc(NC(=O)c2csc(Cc3c(Cl)cccc3Cl)n2)cc1 | 520 | 370
